Measured values published in ChEMBL document CHEMBL1221208, “ATP-competitive inhibitors of the mitotic kinesin KSP that function via an allosteric mechanism” (Nat Chem Biol, 2007).
Changes are numbered by the printed parent chain. Activity calls are given as the source filed them. The rule behind the calls is not given here.

Columns and labels:
[1] = biological target: T1, Kinesin-like protein KIF11 (Homo sapiens) (UniProt P52732); assay: Uncompetitive inhibition of human wild type Eg5 with respect to microtubule using varying ATP levels in presence of saturating levels of microtubule by Lineweaver-Burke plot
T1 sequence (whole entry): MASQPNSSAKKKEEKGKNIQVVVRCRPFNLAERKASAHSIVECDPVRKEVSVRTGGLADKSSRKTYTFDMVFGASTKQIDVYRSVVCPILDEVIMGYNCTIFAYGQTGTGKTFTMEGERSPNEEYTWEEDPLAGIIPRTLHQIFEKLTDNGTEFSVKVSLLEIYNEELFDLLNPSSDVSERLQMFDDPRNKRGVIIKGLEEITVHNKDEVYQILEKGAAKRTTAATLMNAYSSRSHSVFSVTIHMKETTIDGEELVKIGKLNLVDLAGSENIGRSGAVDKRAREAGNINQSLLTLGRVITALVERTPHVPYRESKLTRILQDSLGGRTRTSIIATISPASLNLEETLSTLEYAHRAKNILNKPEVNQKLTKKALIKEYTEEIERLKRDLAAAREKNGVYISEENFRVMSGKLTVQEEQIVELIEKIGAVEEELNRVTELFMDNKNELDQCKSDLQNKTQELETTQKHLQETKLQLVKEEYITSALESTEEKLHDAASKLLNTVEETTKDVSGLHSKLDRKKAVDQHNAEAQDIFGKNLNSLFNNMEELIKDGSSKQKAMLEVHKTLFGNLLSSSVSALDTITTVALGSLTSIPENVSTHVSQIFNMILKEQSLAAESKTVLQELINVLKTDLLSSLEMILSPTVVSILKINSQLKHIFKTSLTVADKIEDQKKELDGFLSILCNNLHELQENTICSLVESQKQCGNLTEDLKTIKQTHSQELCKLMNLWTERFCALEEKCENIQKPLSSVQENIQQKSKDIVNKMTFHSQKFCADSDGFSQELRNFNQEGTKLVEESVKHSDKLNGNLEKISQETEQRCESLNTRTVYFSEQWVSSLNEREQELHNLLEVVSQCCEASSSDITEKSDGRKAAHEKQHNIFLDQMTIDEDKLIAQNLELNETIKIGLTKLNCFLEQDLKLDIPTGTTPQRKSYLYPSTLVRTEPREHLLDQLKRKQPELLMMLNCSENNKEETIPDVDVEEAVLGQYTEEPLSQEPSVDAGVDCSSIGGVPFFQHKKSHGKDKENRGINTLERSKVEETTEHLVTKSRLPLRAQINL

Homo sapiens = species on record: Homo sapiens; assay: Uncompetitive inhibition of human KSP KHC-L5 mutant with respect to microtubule using varying ATP levels in presence of saturating levels of microtubule by Lineweaver-Burke plot
[2] = test system: T2, Kinesin-like protein KIF11 (Homo sapiens), P52732 [A133D]; assay: Competitive inhibition of human KSP A133D mutant with respect to ATP using varying ATP levels in presence of saturating levels of microtubule by Lineweaver-Burke plot
T2 sequence (whole entry): T1 sequence (whole entry) with A133D

[3] = test system: T2, Kinesin-like protein KIF11 (Homo sapiens), P52732 [A133D]; assay: Uncompetitive inhibition of human KSP A133D mutant with respect to microtubule using varying ATP levels in presence of saturating levels of microtubule by Lineweaver-Burke plot

Row | inhibition [1] | inhibition (Homo sapiens) | inhibition [2] | inhibition [3] | Structure (SMILES)
1 | Active | Active | Active | Active | NC(=O)Nc1ccc(-c2ccc(C(F)(F)F)cc2)cc1F
2 | Active | Active | Active | Active | O=C1CCc2cc(-c3ccc(C(F)(F)F)cc3)ccc2N1
